pEC50, pKi: −log10 of the molar value. The source made the active and inactive calls. The rule behind the calls is not given here.

Results on one compound are retold here after ChEMBL document CHEMBL3046746, “Introduction to Receptors in Aging Diseases: GABA Receptors” (Med Chem Res, 2004).

The species named for test [1] is Homo sapiens. The experiment in a line: Selectivity ratio of Ki for GABAA alpha3beta3gamma3 (unknown origin) to Ki for GABAA alpha5beta3gamma2 (unknown origin).
Test [2] is filed under the species Homo sapiens. Nature of the test: Selectivity ratio of Ki for GABAA alpha2beta3gamma2 (unknown origin) to Ki for GABAA alpha5beta3gamma2 (unknown origin).
Test [3] is filed under the species Homo sapiens. Nature of the test: Selectivity ratio of Ki for GABA-Aalpha1beta3gamma2 (unknown origin) to Ki for GABAA alpha5beta3gamma2 (unknown origin).
For test [4], the system named is Rattus norvegicus. Nature of the test: In vivo GABAA alpha5beta3gamma2 receptor occupancy in Rattus norvegicus (rat) assessed as inhibition of [3H]L-655,708 binding at 0.3 mg/kg, ip. It counts as functional. The conditions noted are these: route intraperitoneal.
Test [5] concerns Rattus norvegicus. The experiment in a line: Cognitive enhancing effect in Rattus norvegicus (rat) at 0.3 mg/kg, ip by water maze test. It counts as functional, organism-based. Set-up: dose 0.3 mg/kg.
For test [6], the target named is Gamma-aminobutyric acid receptor subunit alpha-3/ beta-3/gamma-3 (Homo sapiens) (UniProt P28472+Q99928+P34903). Nature of the test: Antagonist activity at GABAA alpha3beta3gamma3 in Homo sapiens (human) L(tk-) cells relative to GABA.
The target of test [7] is GABA-A receptor; alpha-1/beta-3/gamma-2 (Homo sapiens) (UniProt P14867+P18507+P28472). The experiment in a line: Modulation of GABA-Aalpha1beta3gamma2 in Homo sapiens (human) L(tk-) cells relative to GABA.
Test [8] addresses GABA-A receptor; alpha-5/beta-3/gamma-2 (Homo sapiens) (UniProt P18507+P28472+P31644). The experiment in a line: Modulation of GABAA alpha5beta3gamma2 in Homo sapiens (human) L(tk-) cells patch clamp assay relative to GABA. In general terms: Patch clamp records ionic current or voltage across a cell membrane.
Test [9] addresses GABA-A receptor; alpha-2/beta-3/gamma-2 (Homo sapiens) (UniProt P18507+P28472+P47869). Nature of the test: Antagonist activity at GABAA alpha2beta3gamma2 in Homo sapiens (human) L(tk-) cells by patch clamp assay relative to GABA.
For test [10], the target named is T1, GABA-A receptor; alpha-5/beta-3/gamma-2 (Homo sapiens, UniProt P18507+P28472+P31644).
T1 sequence (P18507 whole entry): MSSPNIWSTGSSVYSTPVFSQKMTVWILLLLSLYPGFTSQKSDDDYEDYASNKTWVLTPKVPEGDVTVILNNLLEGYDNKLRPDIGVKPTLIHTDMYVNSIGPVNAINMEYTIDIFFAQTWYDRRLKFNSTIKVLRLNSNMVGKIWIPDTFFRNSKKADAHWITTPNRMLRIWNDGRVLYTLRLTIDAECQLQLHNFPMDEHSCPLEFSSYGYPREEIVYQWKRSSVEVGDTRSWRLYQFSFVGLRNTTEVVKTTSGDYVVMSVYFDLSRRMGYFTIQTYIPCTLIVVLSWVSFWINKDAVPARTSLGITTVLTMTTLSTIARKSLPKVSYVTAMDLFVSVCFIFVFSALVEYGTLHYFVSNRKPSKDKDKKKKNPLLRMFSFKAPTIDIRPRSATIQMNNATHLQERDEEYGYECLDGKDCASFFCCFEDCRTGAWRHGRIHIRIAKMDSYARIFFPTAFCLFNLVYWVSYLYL
T1 sequence (P28472 whole entry): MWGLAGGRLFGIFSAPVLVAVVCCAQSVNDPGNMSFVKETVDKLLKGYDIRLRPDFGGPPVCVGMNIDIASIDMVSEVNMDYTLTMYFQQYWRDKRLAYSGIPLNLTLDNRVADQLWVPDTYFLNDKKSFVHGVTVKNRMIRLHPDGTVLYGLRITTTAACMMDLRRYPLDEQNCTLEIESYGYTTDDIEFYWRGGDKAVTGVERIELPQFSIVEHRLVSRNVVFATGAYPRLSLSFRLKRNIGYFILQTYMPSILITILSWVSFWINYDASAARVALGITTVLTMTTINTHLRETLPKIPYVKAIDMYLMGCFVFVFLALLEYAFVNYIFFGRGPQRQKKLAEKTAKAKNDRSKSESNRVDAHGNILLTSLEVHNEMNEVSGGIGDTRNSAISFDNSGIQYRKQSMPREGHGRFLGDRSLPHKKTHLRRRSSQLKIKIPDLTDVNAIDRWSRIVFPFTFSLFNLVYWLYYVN
T1 sequence (P31644 whole entry): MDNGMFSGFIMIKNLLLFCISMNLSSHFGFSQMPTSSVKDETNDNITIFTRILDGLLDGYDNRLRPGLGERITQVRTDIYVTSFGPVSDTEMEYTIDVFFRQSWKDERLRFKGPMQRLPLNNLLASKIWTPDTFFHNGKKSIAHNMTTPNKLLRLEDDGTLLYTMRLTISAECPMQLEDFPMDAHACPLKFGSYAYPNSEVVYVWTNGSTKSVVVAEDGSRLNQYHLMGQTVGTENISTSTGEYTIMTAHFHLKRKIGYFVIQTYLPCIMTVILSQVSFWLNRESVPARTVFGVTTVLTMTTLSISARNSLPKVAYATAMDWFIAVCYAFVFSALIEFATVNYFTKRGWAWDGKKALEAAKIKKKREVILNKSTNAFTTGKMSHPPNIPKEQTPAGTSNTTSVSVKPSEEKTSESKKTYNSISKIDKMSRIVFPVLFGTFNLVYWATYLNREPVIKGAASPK
The experiment in a line: Inverse agonist activity at GABAA alpha5beta3gamma2 in Homo sapiens (human) L(tk-) cells by patch clamp assay.

Test [11] addresses T2, Gamma-aminobutyric acid receptor subunit alpha-3/ beta-3/gamma-3 (Homo sapiens, UniProt P28472+P34903+Q99928).
T2 sequence (P28472 whole entry): T1 sequence (P28472 whole entry)
T2 sequence (Q99928 whole entry): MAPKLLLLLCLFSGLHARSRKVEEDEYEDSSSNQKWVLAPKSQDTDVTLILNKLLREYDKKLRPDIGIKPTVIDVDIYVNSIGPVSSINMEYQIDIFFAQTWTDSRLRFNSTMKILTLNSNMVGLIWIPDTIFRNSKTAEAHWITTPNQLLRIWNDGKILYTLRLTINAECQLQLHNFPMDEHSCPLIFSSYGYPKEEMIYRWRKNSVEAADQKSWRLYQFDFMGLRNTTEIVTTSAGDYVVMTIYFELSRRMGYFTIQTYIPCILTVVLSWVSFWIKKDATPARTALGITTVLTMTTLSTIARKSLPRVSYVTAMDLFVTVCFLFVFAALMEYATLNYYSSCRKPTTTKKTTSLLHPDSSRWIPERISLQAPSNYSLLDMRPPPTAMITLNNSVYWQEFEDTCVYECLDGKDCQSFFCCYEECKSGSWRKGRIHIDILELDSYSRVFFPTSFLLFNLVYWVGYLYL
T2 sequence (P34903 whole entry): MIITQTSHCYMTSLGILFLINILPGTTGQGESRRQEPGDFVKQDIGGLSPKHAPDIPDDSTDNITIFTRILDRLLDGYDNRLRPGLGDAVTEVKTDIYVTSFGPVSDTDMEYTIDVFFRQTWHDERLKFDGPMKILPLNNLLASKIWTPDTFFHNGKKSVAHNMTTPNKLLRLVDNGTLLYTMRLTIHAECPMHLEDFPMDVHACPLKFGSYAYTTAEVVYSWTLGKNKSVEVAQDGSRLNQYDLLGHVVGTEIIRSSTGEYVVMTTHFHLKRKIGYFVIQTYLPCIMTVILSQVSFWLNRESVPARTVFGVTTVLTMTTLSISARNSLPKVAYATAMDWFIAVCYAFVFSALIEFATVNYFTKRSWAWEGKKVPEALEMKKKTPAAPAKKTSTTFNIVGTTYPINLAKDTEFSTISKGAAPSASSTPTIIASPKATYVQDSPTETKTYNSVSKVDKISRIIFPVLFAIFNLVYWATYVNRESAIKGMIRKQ
The experiment in a line: Binding affinity to GABAA alpha3beta3gamma3 (unknown origin). It counts as protein-complex assay.

Consider `CC1(C)CC(=O)c2c(SCCO)sc(-c3nccs3)c2C1`, for which the Ratio Ki in the test listed under Homo sapiens [1], in the test filed under Homo sapiens [2] and in the test listed under Homo sapiens [3] was 10 throughout. In addition, in the test on Rattus norvegicus [4], the Occ is recorded as 40%. For the same compound, the result (with Rattus norvegicus [5]; in [6]; in test [9]) was Active. The Efficacy in [7] was -21%. Moreover, the Emax in test [8] is -51%. Further, in test [10], the pEC50 is 9.15. Moreover, in test [11], the negative-log Ki (pKi) is 7.70.

As usually defined, the Emax is the size of the effect at its maximum, as opposed to the concentration needed. The pEC50 is the EC50 on a negative log10 scale, so that one unit is a factor of ten. Low readings indicate a large EC50, high ones a small EC50. By pKi is commonly meant −log10 of the Ki, conventionally taken in molar units.
